Results from US12344899B2, “Compositions and methods for therapeutics prescreening” (TECHNION RESEARCH & DEVELOPMENT FOUNDATION LIMITED, priority 2014, dated 2025).
“Also recorded” adds a separate entry of the source.

Tests used:
4T1 breast cancer tumor = experiment: Therapeutic treatment validating the barcoding analysis (FIG. 9); type: in vivo, mice; conditions: for proliferation index (anti-Ki67 immunohistochemistry): tumors extracted 24 days after starting treatment, 125 mg/kg Gemcitabine i.v. weekly
Description: FIG. 9A-D. Therapeutic efficacy based on barcoding analysis. FIGS. 9A-B and D are bar graphs comparing tumor volume change between different therapeutic groups. Each group got a weekly dose of chemo drug Doxorubicin, Cisplatin, or Gemcitabine. The control group got saline. Representative tumor dimensions of each group. The tumor was extracted […] after starting the treatment. Tumor/Body weight of each group.
To validate the barcoding analysis of the three chemotherapeutic drugs—Doxorubicin, Cisplatin and Gemcitabine, therapeutic treatment was conducted. The experiment included 4 groups, each containing 6 mice. Each group was treated with single drug for 24 days, starting 10 days post tumor induction. Each dose was given intravenous once a week. Each group was treated with either 5 mg/kg of Doxorubicin, 6 mg/kg of Cisplatin, 125 mg/kg of Gemcitabine or 100 μl of saline as a control. Tumors volumes were measured with caliper and calculated as length/2*(width)^2. […] 24 days after starting the treatment, the tumor of each mouse was extracted for further analysis. […] The tumor weight parameter reflects the effectiveness of the drug to inhibit and damage the tumor growth. The body weight parameter reflects the influence of the drug on the body or how severe are the side effects of the drug. […] To check differences in the tissue level between the different groups, all the tumors were studied histologically. Tissue slides from the tumors were stained with hematoxylin and eosin. […] Additionally, tissue slides were immunohistochemically stained with rabbit monoclonal anti-Ki67 antibody (SP6; Thermo Scientific, Fremont, Calif.) to determine proliferation index (not shown).

[1] = tested on: 4T1 breast cancer primary tumor; experiment: Barcoded nanoparticles with different drugs injected simultaneously i.v.; barcode levels in live/dead tumor cells (FIG. 8); type: in vivo, BALB/c mice; conditions: for therapeutic effect rated from barcode distribution / drug barcode levels in the dead cells in comparison to the live cells: tumor biopsy 48 hours later; for therapeutic effect rated from barcode distribution: FIGS. 8A-E; for drug barcode levels in the dead cells in comparison to the live cells: cells sorted live/dead
Protocol: Barcoded nanoparticles containing control compounds or different drugs: placebo (A), caffeine (B), Cisplatin (C), Doxorubicin (D) and Gemcitabine (E), were injected simultaneously intravenously to BALB/c mice bearing a primary tumor in the hind thigh. 48 hours later, enabling the particle to accumulate in the tumor and perform the therapeutic activity, a biopsy was taken from the tumor. The biopsy tissue was then dissociated into a single-cell suspension, and the cells were screened according to their viability (live/dead). […] (F) The potency of the drugs was calculated by dividing the number of barcodes extracted from dead cells by the number of barcodes extracted from live cells for each drug. The values are presented in logarithmic scale.
In vivo transfection: 100 μl of 10^6cells/ml of 4T1 (breast cancer) was injected subcutaneous to 10 weeks balb/c female mice. About […] later (when the primary tumor was massive enough), 100 μl of liposome solution was injected intravenous. 36 hrs later, the mouse was sacrificed and its organs (+tumor) were taken in ice for further steps.
In the present study, ovarian tumors are expanded in hESC teratomas in SCID/beige mice, as previously described (Burgos-Ojeda, ibid.). Barcoded nanoparticles loaded with anti-cancer drugs are administered intravenously. Evaluation of the therapeutic task of the nanoparticle is evaluated after 48 hours which enables accumulation in the tumor and carrying out a therapeutic task. […] Post-mortem histological evaluation of the tissue is used to study the tumor bio-distribution. A biopsy sample is then dissociated into a single-cell suspension and the cells are sorted, using antibodies, according to cell subpopulation (including, CD45, CD11B, F4/80, CD13, REST) and viability (live/dead).
Barcoded nanoparticles containing five different drugs or control compounds (FIG. 8 depicts Placebo, Caffeine, Cisplatin, Doxorubicin and Gemcitabine), were injected simultaneously intravenously to BALB/c mice bearing a primary tumor in the hind thigh. 48 hours later, a biopsy was taken from the tumor. The biopsy tissue was then dissociated into a single-cell suspension, and the cells were screened according to their viability (live/dead).

[2] = 5 mg/kg Doxorubicin, 6 mg/kg Cisplatin

Row | Structure (SMILES) | proliferation index (anti-Ki67 immunohistochemistry) (4T1 breast cancer tumor; [2]) [%] | therapeutic effect rated from barcode distribution ([1]; drug in barcoded nanoparticles) | drug barcode levels in the dead cells in comparison to the live cells [1] | tumor/body weight ratio (4T1 breast cancer tumor; at sacrifice, FIG. 9(C), weekly i.v. dosing) | tumor volume change / tumor growth (4T1 breast cancer tumor; i.v. once a week for 24 days, 5 mg/kg Doxorubicin, 6 mg/kg Cisplatin, 125 mg/kg Gemcitabine, FIG. 9(A)) | barcodes accumulated in the dead cells, more compare to the live cells ([1]; drug in barcoded nanoparticles, 48 hours, FIG. 8(E))
1 | N.N.[Cl][Pt][Cl] [Cisplatin] | 65 | clear therapeutic effect | Elevated levels |  |  | 
2 | COc1cccc2c1C(=O)c1c(O)c3c(c(O)c1C2=O)C[C@@](O)(C(=O)CO)C[C@@H]3O[C@H]1C[C@H](N)[C@H](O)[C@H](C)O1 [Doxorubicin] | 90 | clear therapeutic effect |  |  |  | 
3 | Cn1c(=O)c2c(ncn2C)n(C)c1=O [Caffeine] |  | almost no effect |  |  |  | 
4 | Nc1ccn([C@@H]2O[C@H](CO)[C@@H](O)C2(F)F)c(=O)n1 [Gemcitabine] | 40 | more effective than cisplatin; also recorded: most efficient drug | Elevated levels | minimum tumor/body weight ratio | significantly attenuated the growth of the tumors | 6,000
